From US8440708B2, “Triazole-substituted arylamides as P2X3 and P2X2/3 antagonists” (Roche Palo Alto LLC, priority 2007, dated 2013)

What was measured:
rat P2X3 receptor = target: T1, rat P2X3 receptor (Rattus norvegicus, UniProt P49654); assay: P2X3/P2X2/3 FLIPR (Fluorometric Imaging Plate Reader) Assay, P2X3; type: cell-based; conditions: CHO-K1 cells transfected with rat P2X3; agonist α,β-meATP 1 μM; Table 1; read-out: P2X3 pKi (converted)
T1 construct: expressed in transfected cells; host or cells: CHO-K1
T1 sequence (P49654 1-397): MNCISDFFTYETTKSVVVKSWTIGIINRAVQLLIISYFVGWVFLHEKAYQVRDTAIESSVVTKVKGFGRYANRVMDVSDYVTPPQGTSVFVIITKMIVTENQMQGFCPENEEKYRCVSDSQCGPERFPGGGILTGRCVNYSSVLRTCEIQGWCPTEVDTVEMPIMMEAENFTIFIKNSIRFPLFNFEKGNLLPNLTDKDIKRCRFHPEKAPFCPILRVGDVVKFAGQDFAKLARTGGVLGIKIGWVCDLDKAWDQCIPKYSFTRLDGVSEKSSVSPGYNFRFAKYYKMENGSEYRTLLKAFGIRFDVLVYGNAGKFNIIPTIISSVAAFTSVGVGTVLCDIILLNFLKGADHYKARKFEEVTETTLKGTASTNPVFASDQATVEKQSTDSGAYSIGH
Outline: (§1)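 CHO-K1 cells expressing rat P2X3 or human P2X2/3 were loaded with Fluo-3 AM (2 μM, 1 h, 37 °C) and preincubated with compound for 20 min at room temperature. Calcium influx was evoked by α,β-meATP (1 μM for P2X3, 5 μM for P2X2/3) and peak fluorescence was fitted by nonlinear regression to inhibition curves.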

human P2X2/3 receptor = target: T2, human P2X2/3 receptor (Homo sapiens, UniProt P56373+Q9UBL9); assay: P2X3/P2X2/3 FLIPR (Fluorometric Imaging Plate Reader) Assay, P2X2/3; type: cell-based; conditions: CHO-K1 cells transfected with human P2X2/3; agonist α,β-meATP 5 μM; Table 1; read-out: P2X2/3 pKi (converted)
T2 construct: expressed in transfected cells; host or cells: CHO-K1
T2 sequence (Q9UBL9 1-471): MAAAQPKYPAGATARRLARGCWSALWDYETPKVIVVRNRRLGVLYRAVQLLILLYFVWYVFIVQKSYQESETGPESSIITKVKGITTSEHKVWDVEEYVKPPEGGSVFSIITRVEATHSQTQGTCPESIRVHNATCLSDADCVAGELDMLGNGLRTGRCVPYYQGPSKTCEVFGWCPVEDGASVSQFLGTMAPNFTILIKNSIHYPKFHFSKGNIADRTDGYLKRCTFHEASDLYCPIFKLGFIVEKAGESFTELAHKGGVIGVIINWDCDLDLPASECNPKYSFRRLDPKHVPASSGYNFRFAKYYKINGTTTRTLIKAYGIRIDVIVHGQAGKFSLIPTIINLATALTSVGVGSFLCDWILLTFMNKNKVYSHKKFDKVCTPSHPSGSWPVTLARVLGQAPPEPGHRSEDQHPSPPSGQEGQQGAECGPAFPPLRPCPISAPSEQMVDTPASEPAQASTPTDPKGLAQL
T2 sequence (P56373 1-397): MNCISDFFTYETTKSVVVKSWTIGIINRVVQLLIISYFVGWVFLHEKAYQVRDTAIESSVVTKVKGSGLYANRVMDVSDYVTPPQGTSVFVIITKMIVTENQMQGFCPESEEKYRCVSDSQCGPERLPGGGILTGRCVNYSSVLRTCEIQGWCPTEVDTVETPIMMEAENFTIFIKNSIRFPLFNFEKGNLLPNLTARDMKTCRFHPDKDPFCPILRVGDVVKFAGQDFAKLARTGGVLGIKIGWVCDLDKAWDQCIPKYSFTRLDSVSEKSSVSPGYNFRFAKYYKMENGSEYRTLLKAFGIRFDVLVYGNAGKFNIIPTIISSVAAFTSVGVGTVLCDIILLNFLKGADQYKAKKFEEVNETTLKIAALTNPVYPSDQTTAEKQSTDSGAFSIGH
Outline: as §1

| Ki (rat P2X3 receptor) [nM] | Ki (human P2X2/3 receptor) [nM] | SMILES |
| --- | --- | --- |
| 2.95 | 26.3 | Cc1ccc(-c2cc(C(=O)NCc3ccn(C)c(=O)c3)cc(-n3ncnc3C(C)C)c2)nc1 [Compound 159, 3-(5-Isopropyl-[1,2,4]triazol-1-yl)-N-(1-methyl-2-oxo-1,2-dihydro-pyridin-4-ylmethyl)-5-(5-methyl-pyridin-2-yl)-benzamide] |
| 11.5 | 302 | Cc1ccc(-c2cc(C(=O)NCc3cnc(C)cn3)cc(-n3ncnc3C(F)(F)F)c2F)nc1 [Compound 164, 4-Fluoro-N-(5-methyl-pyrazin-2-ylmethyl)-3-(5-methyl-pyridin-2-yl)-5-(5-trifluoromethyl-[1,2,4]triazol-1-yl)-benzamide] |
| 2.51 | 12 | Cc1ccc(-c2cc(-n3ncnc3C(F)(F)F)cc(C(=O)N[C@@H](C)CO)c2F)nc1 [Compound 167, 2-Fluoro-N-((S)-2-hydroxy-1-methyl-ethyl)-3-(5-methyl-pyridin-2-yl)-5-(5-trifluoromethyl-[1,2,4]triazol-1-yl)-benzamide] |
| 13.5 | 2690 | Cc1ccc(-c2cc(-n3ncnc3C(F)(F)F)cc(C(=O)NC(C)c3cnccn3)c2F)nc1 (centres unmarked) [Compound 168, 2-Fluoro-3-(5-methyl-pyridin-2-yl)-N-(1-pyrazin-2-yl-ethyl)-5-(5-trifluoromethyl-[1,2,4]triazol-1-yl)-benzamide] |
| 4.27 | 95.5 | Cc1ccc(-c2cc(-n3ncnc3C(F)(F)F)cc(C(=O)NCc3cnc(C)cn3)c2F)nc1 [Compound 169, 2-Fluoro-N-(5-methyl-pyrazin-2-ylmethyl)-3-(5-methyl-pyridin-2-yl)-5-(5-trifluoromethyl-[1,2,4]triazol-1-yl)-benzamide] |
| 16.6 | 209 | Cc1ccc(-c2cc(C(=O)NCc3ncc(C)cn3)cc(-n3ncnc3C(F)(F)F)c2)nc1 [Compound 171, 3-(5-Methyl-pyridin-2-yl)-N-(5-methyl-pyrimidin-2-ylmethyl)-5-(5-trifluoromethyl-[1,2,4]triazol-1-yl)-benzamide] |
| 3.98 | 85.1 | Cc1ccc(-c2cc(-n3ncnc3C(C)C)cc(C(=O)NC(C)c3cnccn3)c2F)nc1 (centres unmarked) [Compound 173, 2-Fluoro-5-(5-isopropyl-[1,2,4]triazol-1-yl)-3-(5-methyl-pyridin-2-yl)-N-(1-pyrazin-2-yl-ethyl)-benzamide] |
| 6.46 | 1620 | Cc1ccc(-c2cc(-n3ncnc3C(C)C)cc(C(=O)N[C@@H](C)CO)c2F)nc1 [Compound 174, 2-Fluoro-N-((S)-2-hydroxy-1-methyl-ethyl)-5-(5-isopropyl-[1,2,4]triazol-1-yl)-3-(5-methyl-pyridin-2-yl)-benzamide] |
| 3.72 | 32.4 | Cc1ccc(-c2cc(-n3ncnc3C(F)(F)F)cc(C(=O)NCc3ccc(C)nn3)c2F)nc1 [Compound 176, 2-Fluoro-N-(6-methyl-pyridazin-3-ylmethyl)-3-(5-methyl-pyridin-2-yl)-5-(5-trifluoromethyl-[1,2,4]triazol-1-yl)-benzamide] |
| 24 | 151 | Cc1ccc(-c2cc(-n3ncnc3C(F)(F)F)cc(C(=O)NCc3ncc(C)cn3)c2F)nc1 [Compound 177, 2-Fluoro-3-(5-methyl-pyridin-2-yl)-N-(5-methyl-pyrimidin-2-ylmethyl)-5-(5-trifluoromethyl-[1,2,4]triazol-1-yl)-benzamide] |
| 3.63 | 51.3 | Cc1ccc(-c2cc(-n3ncnc3C(F)(F)F)cc(C(=O)NCc3cnc(C)nc3)c2F)nc1 [Compound 178, 2-Fluoro-3-(5-methyl-pyridin-2-yl)-N-(2-methyl-pyrimidin-5-ylmethyl)-5-(5-trifluoromethyl-[1,2,4]triazol-1-yl)-benzamide] |
| 24.5 | 339 | Cc1ccc(-c2cc(C(=O)N[C@H](C)CN3CCOCC3)cc(-n3ncnc3C(F)(F)F)c2)nc1 [Compound 179, N-((R)-1-Methyl-2-morpholin-4-yl-ethyl)-3-(5-methyl-pyridin-2-yl)-5-(5-trifluoromethyl-[1,2,4]triazol-1-yl)-benzamide] |
| 6.61 | 46.8 | Cc1ccc(-c2cc(C(=O)N[C@@H](C)c3cnccn3)cc(-n3ncnc3C(F)(F)F)c2)nc1 [Compound 180, 3-(5-Methyl-pyridin-2-yl)-N-((S)-1-pyrazin-2-yl-ethyl)-5-(5-trifluoromethyl-[1,2,4]triazol-1-yl)-benzamide] |
